{"source": "paper PMC10261210", "about": "(Cancer Chemotherapy and Pharmacology, 2023)", "key": {"wild-type BRAF": {"system": "wild-type BRAF", "design": "method as in doi:10.1016/S1359-6349(10)71810-3", "conditions": "preclinical studies; cited from earlier work"}, "[1]": {"system": "patients with relapsed or refractory advanced solid tumors", "experiment": "phase 1 safety: adverse events (CTCAE v4.03), safety population", "format": "in vivo, human", "conditions": "for Fatal serious adverse event, MedDRA preferred term: patient", "protocol": "Treatment was to be continued until disease progression, unacceptable toxicity, or the patient discontinued for any other reason, for a maximum duration of 12 months. Treatment could be continued beyond 12 months if it was determined that a patient would derive benefit from such continued therapy.\nAdverse events were coded using the Medical Dictionary for Regulatory Activities (MedDRA) Version 19.0 and were graded according to the National Cancer Institute (NCI) Common Terminology Criteria (CTC) for adverse events (CTCAE) (Version 4.03). The assessment period for treatment emergent adverse events (TEAEs) was from the first dose of study treatment to 30 days after the last dose of study medication, or until the start of subsequent antineoplastic therapy, whichever occurred first. Following baseline evaluation, response was assessed by investigators every two cycles by computed tomography or magnetic resonance imaging according to Response Evaluation Criteria in Solid Tumors (version 1.1).\nThe safety population was defined as all patients who received any amount of tovorafenib. The DLT-evaluable population was defined as all patients in the dose escalation phase of the study who either experienced DLT during cycle 1 or who completed at least 75% of the planned doses and had sufficient follow-up data to allow the investigators and sponsor to determine whether DLT had occurred. […] The PK-evaluable population included all patients who had sufficient dosing data and concentration–time data to permit calculation of PK parameters."}, "[2]": {"system": "relapsed or progressive LGGs harboring BRAF alterations", "design": "method as in ref 33 = [33]; 33. Kilburn L, Landi D, Leary S, Ziegler DS, Baxter P, Franson A, McCowage G, Waanders AJ, Van der Lugt J, Yalon Oren M, Gerber NU, Gottardo NG, Khuong-Quang D-A, Nysom K, Bailey S, Hernáiz Driever P", "conditions": "interim analysis, first 25 enrolled patients with ≥ 6 months of follow-up, QW monotherapy; cited from earlier work"}, "[3]": {"system": "BRAF-mutant, BRAF deletion mutation and NRAS-mutant xenograft tumor models", "design": "method as in doi:10.1016/S1359-6349(10)71810-3", "conditions": "cited from earlier work"}, "BRAF V600E mutant": {"system": "BRAF V600E mutant", "design": "method as in doi:10.1016/S1359-6349(10)71810-3", "conditions": "preclinical studies; cited from earlier work"}, "[4]": {"system": "relapsed or refractory advanced solid tumors, melanoma", "design": "method as in ref 25 = [25]; 25. Medina T Barry E Govinda Raju S Blackman S Gonzalez R Prolonged complete response to the pan-RAF inhibitor DAY101 in a patient with an NRAS -mutated acral lentiginous melanoma Pigment Cell Melanom", "conditions": "one patient, NRAS-mutated melanoma, cited from earlier work"}, "BRAF": {"system": "BRAF", "design": "method as in PMID 28082416", "conditions": "cited from earlier work"}, "pERK": {"system": "pERK", "experiment": "pERK expression in paired tumor biopsies (H-score, image analysis)", "format": "in vivo, human", "conditions": "for median percentage decrease in pERK staining, day 21 vs baseline: Q2D expansion; for median percentage decrease in pERK expression, day 21 vs baseline: QW melanoma expansion cohort", "protocol": "Based on tissue availability, pharmacodynamic assays included assessment of pERK expression levels in paired biopsy samples (baseline and day 21) from patients in the melanoma dose expansion cohorts. The level of staining was assessed both by a pathologist (semi-quantitative measurements according to H-score assessment) and by quantitated image analysis (Aperio, Leica Biosystems Nussloch, Germany)."}, "[5]": {"system": "BRAF V600 mutant melanoma xenografts", "design": "method as in doi:10.1016/S1359-6349(10)71810-3", "conditions": "mice; tumors remaining sensitive to a second dosing cycle; cited from earlier work"}}}
{"smiles": "C[C@@H](NC(=O)c1ncnc(N)c1Cl)c1ncc(C(=O)Nc2cc(C(F)(F)F)c(Cl)cn2)s1", "note": "[tovorafenib]", "values": [{"measurement": "IC50", "setting": "wild-type BRAF", "result": 10.1, "unit": "nM"}, {"measurement": "Fatal serious adverse event, MedDRA preferred term", "setting": "[1]; dose escalation, 20 mg Q2D, study day of death 23, Not related", "result": "Respiratory failure"}, {"measurement": "Fatal serious adverse event, MedDRA preferred term", "setting": "[1]; dose escalation, 80 mg Q2D, study day of death 44, Not related", "result": "Colon cancer"}, {"measurement": "Fatal serious adverse event, MedDRA preferred term", "setting": "[1]; dose escalation, 280 mg Q2D, study day of death 28, Related", "result": "Respiratory failure"}, {"measurement": "Fatal serious adverse event, MedDRA preferred term", "setting": "[1]; dose escalation, 600 mg QW, study day of death 9, Not related", "result": "Colon cancer metastatic"}, {"measurement": "Fatal serious adverse event, MedDRA preferred term", "setting": "[1]; dose escalation, 600 mg QW, study day of death 28, Not related", "result": "Pancreatic carcinoma"}, {"measurement": "Fatal serious adverse event, MedDRA preferred term", "setting": "[1]; dose escalation, 800 mg QW, study day of death 31, Not related", "result": "Cardio-respiratory arrest"}, {"measurement": "on-study deaths", "setting": "[1]; dose expansion phase (7%)", "result": 7, "unit": "patients"}, {"measurement": "Fatal serious adverse event, MedDRA preferred term", "setting": "[1]; dose expansion, Q2D, study day of death 16, Not related", "result": "Small intestinal obstruction"}, {"measurement": "Fatal serious adverse event, MedDRA preferred term", "setting": "[1]; dose expansion, Q2D, study day of death 26, Not related", "result": "Sepsis"}, {"measurement": "Fatal serious adverse event, MedDRA preferred term", "setting": "[1]; dose expansion, Q2D, study day of death 43, Not related", "result": "Pneumonia"}, {"measurement": "Fatal serious adverse event, MedDRA preferred term", "setting": "[1]; dose expansion, Q2D, study day of death 61, Not related", "result": "Metastatic malignant melanoma"}, {"measurement": "Fatal serious adverse event, MedDRA preferred term", "setting": "[1]; dose expansion, Q2D, study day of death 67, Not related", "result": "Malignant melanoma"}, {"measurement": "Fatal serious adverse event, MedDRA preferred term", "setting": "[1]; dose expansion, Q2D, study day of death 81, Not related", "result": "Metastatic malignant melanoma"}, {"measurement": "drug-related TEAE fatigue", "setting": "[1]; human, in vivo", "result": 42, "unit": "%"}, {"measurement": "drug-related TEAE maculo-papular rash", "setting": "[1]; human, in vivo", "result": 36, "unit": "%"}, {"measurement": "drug-related grade 3 or higher anemia", "setting": "[1]; human, in vivo", "result": 8, "unit": "%"}, {"measurement": "drug-related grade 3 or higher hyperbilirubinemia", "setting": "[1]; human, in vivo", "result": 10, "unit": "%"}, {"measurement": "drug-related grade 3 or higher maculo-papular rash", "setting": "[1]; human, in vivo", "result": 9, "unit": "%"}, {"measurement": "generalized rash leading to dose reduction", "setting": "[1]; human, in vivo", "result": 3, "unit": "%"}, {"measurement": "grade 3 or higher anemia", "setting": "[1]; human, in vivo", "result": 14, "unit": "%"}, {"measurement": "grade 3 or higher maculo-papular rash", "setting": "[1]; human, in vivo", "result": 8, "unit": "%"}, {"measurement": "maculo-papular rash leading to dose reduction", "setting": "[1]; human, in vivo", "result": 5, "unit": "%"}, {"measurement": "maculo-papular rash resulting in permanent discontinuation", "setting": "[1]; human, in vivo", "result": 3, "unit": "%"}, {"measurement": "sepsis resulting in permanent discontinuation", "setting": "[1]; human, in vivo", "result": 3, "unit": "%"}, {"measurement": "squamous cell carcinoma of skin reported as TEAE", "setting": "[1]; human, in vivo", "result": "< 1", "unit": "%"}, {"measurement": "on-study deaths deemed treatment related", "setting": "[1]; respiratory failure, 280 mg Q2D dose escalation cohort", "result": "one"}, {"measurement": "on-study deaths", "setting": "[1]; whole study, 149 patients", "result": 13}, {"measurement": "clinical benefit rate", "setting": "[2]", "result": 91, "unit": "%"}, {"measurement": "overall response rate", "setting": "[2]", "result": 64, "unit": "%"}, {"measurement": "p-ERK suppression", "setting": "[3]", "result": "strong and sustained p-ERK suppression"}, {"measurement": "IC50", "setting": "BRAF V600E mutant", "result": 7.1, "unit": "nM"}, {"measurement": "treatment time until complete response was reported", "setting": "[4]; single patient IND after the study", "result": 7, "unit": "months"}, {"measurement": "duration for which complete response has been sustained", "setting": "[4]; single patient IND, continued treatment", "result": 8, "unit": "years"}, {"measurement": "affinity for monomeric versus dimeric forms of BRAF", "setting": "BRAF", "result": "equal affinity"}, {"measurement": "median percentage decrease in pERK staining, day 21 vs baseline", "setting": "pERK; H-score by a pathologist, BRAF mutation-positive previously treated cohort", "result": "≥ 70", "unit": "%"}, {"measurement": "median percentage decrease in pERK staining, day 21 vs baseline", "setting": "pERK; H-score by a pathologist, BRAF mutation-positive treatment-naïve cohort", "result": "≥ 70", "unit": "%"}, {"measurement": "median percentage decrease in pERK staining, day 21 vs baseline", "setting": "pERK; H-score by a pathologist, NRAS mutation-positive treatment-naïve cohort", "result": "≥ 70", "unit": "%"}, {"measurement": "median percentage decrease in pERK expression, day 21 vs baseline", "setting": "pERK; H-score by a pathologist", "result": 12, "unit": "%"}, {"measurement": "median percentage decrease in pERK staining, day 21 vs baseline", "setting": "pERK; quantitated image analysis, BRAF mutation-positive previously treated cohort", "result": "≥ 70", "unit": "%"}, {"measurement": "median percentage decrease in pERK staining, day 21 vs baseline", "setting": "pERK; quantitated image analysis, NRAS mutation-positive treatment-naïve cohort", "result": "≥ 70", "unit": "%"}, {"measurement": "median percentage decrease in pERK expression, day 21 vs baseline", "setting": "pERK; quantitated image analysis", "result": 8, "unit": "%"}, {"measurement": "effect on large, established xenograft tumors", "setting": "[5]", "result": "caused tumor regression"}]}
